Legend:
[1] = Inhibition of flag-tagged MEK4 Q253Y/I258V/R262M mutant (unknown origin) expressed in HEK-293T cells after 20 mins in presence of [32P]-ATP; format: cell-based, Homo sapiens
[2] = Inhibition of HA-tagged MEK7 R283Y/K288V/R292M mutant (unknown origin) expressed in HEK-293T cells after 20 mins in presence of [32P]-ATP; format: cell-based, Homo sapiens
[3] = target: T1, Dual specificity mitogen-activated protein kinase kinase 7 (Homo sapiens, UniProt O14733); assay: Inhibition of MEK7 (unknown origin)
T1 sequence (O14733 whole entry): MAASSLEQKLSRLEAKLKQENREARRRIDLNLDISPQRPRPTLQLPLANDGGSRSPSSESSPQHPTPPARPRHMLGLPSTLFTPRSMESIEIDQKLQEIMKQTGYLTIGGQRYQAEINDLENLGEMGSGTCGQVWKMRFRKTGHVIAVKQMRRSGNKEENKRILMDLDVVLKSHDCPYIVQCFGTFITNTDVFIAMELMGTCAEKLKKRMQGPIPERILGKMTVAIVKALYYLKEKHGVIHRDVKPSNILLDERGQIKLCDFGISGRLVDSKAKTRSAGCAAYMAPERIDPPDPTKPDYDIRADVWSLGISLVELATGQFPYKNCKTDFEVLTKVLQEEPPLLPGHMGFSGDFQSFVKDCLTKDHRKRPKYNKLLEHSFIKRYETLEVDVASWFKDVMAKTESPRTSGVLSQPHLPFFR

Homo sapiens [4] = species: Homo sapiens; assay: Selectivity ratio of IC50 for CDC25B (unknown origin) to IC50 for MEK7 (unknown origin)
Homo sapiens [5] = species: Homo sapiens; assay: Selectivity ratio of IC50 for CDC25A (unknown origin) to IC50 for MEK7 (unknown origin)
[6] = target: Leucine-rich repeat serine/threonine-protein kinase 2 (Homo sapiens) (UniProt Q5S007); assay: Inhibition of wild type full length recombinant human LRRK2 (H970 to E2527 residues) at 1 uM relative to control
Chain of Leucine-rich repeat serine/threonine-protein kinase 2 (Homo sapiens) (Q5S007 whole entry, the tested form may be a part): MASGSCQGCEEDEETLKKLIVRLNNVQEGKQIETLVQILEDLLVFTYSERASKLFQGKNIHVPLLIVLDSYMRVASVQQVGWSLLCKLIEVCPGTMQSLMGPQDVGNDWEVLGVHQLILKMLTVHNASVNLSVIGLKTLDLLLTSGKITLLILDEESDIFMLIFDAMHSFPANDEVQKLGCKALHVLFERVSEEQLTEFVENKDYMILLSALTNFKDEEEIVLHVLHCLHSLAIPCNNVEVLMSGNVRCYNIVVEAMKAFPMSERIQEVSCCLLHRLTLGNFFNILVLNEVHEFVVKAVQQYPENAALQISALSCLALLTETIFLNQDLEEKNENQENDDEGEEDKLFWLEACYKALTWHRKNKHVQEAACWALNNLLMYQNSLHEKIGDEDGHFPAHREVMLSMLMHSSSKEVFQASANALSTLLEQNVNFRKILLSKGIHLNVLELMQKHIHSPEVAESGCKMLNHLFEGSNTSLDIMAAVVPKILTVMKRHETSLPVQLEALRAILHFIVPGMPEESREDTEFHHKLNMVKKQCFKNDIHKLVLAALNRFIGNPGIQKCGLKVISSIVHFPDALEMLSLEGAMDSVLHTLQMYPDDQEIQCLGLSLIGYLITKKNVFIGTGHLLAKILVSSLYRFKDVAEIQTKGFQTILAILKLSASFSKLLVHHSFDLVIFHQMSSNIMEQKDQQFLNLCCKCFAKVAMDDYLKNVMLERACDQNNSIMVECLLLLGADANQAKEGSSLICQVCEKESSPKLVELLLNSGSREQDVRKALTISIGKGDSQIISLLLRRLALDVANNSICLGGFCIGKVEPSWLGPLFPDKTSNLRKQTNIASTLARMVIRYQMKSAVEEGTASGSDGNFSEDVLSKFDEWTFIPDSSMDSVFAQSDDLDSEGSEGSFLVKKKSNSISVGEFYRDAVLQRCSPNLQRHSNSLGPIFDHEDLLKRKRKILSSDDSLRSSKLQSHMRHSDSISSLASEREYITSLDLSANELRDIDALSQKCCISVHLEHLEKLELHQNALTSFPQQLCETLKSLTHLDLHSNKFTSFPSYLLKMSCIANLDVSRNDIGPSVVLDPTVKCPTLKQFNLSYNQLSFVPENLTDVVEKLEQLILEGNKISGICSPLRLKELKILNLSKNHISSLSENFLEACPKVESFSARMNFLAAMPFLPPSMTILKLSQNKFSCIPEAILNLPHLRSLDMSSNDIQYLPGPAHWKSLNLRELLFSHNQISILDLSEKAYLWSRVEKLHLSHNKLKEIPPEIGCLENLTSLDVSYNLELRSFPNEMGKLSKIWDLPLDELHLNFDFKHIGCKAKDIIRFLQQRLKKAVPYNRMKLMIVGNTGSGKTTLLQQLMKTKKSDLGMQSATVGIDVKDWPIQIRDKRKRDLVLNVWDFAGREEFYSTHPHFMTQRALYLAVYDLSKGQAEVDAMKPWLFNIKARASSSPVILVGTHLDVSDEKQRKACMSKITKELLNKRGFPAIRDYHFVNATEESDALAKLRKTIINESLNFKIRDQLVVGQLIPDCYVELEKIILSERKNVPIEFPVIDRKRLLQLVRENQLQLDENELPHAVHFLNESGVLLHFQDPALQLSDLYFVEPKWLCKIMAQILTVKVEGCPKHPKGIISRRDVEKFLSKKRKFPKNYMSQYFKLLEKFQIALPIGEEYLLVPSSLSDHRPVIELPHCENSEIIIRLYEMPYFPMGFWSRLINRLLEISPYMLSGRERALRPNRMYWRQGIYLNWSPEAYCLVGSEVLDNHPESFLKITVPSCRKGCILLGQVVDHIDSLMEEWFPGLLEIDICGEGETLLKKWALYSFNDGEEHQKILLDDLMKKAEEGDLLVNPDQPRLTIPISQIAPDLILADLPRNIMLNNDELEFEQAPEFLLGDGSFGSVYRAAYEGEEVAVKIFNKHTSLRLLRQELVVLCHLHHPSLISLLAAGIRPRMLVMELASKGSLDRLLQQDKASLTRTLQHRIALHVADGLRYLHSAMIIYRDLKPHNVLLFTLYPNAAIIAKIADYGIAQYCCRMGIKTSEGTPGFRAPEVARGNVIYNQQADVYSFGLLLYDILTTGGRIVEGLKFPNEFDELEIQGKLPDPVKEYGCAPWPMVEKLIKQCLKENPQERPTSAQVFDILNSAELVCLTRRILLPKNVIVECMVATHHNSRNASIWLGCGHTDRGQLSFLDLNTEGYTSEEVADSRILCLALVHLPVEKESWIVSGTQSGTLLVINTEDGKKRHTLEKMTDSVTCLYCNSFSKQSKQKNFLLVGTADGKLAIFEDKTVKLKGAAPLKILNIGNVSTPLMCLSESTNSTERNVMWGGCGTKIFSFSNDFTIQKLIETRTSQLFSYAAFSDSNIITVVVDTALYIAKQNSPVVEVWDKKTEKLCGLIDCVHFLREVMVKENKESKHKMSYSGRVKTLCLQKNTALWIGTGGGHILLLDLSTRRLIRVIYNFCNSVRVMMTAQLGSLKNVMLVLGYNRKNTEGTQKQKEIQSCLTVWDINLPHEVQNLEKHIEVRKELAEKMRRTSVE

[7] = target: Aurora kinase B (Homo sapiens) (UniProt Q96GD4); assay: Inhibition of N- terminal GST-tagged/His6-tagged human recombinant full length Aurora kinase B ([…]) expressed in baculovirus sf21 cells at 1 uM relative to control
Chain of Aurora kinase B (Homo sapiens) (Q96GD4 whole entry, the tested form may be a part): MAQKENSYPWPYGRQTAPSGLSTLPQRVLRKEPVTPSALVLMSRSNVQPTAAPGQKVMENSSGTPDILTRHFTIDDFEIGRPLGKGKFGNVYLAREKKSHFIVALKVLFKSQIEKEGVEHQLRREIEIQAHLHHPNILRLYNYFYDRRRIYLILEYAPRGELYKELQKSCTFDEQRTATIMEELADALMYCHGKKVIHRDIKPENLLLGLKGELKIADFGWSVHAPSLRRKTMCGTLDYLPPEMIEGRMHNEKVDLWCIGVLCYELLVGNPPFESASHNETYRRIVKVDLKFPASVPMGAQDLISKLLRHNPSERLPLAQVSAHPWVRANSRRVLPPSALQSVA

[8] = target: T2, Dual specificity mitogen-activated protein kinase kinase 4 (Homo sapiens) (UniProt P45985); assay: Inhibition of wild type recombinant human MEK4 (S84 to D399 residues) at 1 uM relative to control
T2 sequence (whole entry): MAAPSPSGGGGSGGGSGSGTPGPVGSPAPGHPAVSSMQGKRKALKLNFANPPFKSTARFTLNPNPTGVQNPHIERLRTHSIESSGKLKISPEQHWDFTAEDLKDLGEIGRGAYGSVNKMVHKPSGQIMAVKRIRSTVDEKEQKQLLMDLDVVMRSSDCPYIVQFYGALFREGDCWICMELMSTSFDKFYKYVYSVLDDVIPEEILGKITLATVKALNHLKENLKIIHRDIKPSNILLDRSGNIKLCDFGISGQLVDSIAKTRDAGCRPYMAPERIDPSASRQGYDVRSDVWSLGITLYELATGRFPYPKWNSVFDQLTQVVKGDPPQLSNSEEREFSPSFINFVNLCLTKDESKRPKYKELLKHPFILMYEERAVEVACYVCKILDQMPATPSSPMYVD

[9] = target: T3, Tyrosine-protein kinase JAK3 (Homo sapiens) (UniProt P52333); assay: Inhibition of recombinant human N-terminal His6-tagged JAK3 (781 to end residues) expressed in baculovirus infected Sf21 cells at 1 uM relative to control
T3 sequence (whole entry): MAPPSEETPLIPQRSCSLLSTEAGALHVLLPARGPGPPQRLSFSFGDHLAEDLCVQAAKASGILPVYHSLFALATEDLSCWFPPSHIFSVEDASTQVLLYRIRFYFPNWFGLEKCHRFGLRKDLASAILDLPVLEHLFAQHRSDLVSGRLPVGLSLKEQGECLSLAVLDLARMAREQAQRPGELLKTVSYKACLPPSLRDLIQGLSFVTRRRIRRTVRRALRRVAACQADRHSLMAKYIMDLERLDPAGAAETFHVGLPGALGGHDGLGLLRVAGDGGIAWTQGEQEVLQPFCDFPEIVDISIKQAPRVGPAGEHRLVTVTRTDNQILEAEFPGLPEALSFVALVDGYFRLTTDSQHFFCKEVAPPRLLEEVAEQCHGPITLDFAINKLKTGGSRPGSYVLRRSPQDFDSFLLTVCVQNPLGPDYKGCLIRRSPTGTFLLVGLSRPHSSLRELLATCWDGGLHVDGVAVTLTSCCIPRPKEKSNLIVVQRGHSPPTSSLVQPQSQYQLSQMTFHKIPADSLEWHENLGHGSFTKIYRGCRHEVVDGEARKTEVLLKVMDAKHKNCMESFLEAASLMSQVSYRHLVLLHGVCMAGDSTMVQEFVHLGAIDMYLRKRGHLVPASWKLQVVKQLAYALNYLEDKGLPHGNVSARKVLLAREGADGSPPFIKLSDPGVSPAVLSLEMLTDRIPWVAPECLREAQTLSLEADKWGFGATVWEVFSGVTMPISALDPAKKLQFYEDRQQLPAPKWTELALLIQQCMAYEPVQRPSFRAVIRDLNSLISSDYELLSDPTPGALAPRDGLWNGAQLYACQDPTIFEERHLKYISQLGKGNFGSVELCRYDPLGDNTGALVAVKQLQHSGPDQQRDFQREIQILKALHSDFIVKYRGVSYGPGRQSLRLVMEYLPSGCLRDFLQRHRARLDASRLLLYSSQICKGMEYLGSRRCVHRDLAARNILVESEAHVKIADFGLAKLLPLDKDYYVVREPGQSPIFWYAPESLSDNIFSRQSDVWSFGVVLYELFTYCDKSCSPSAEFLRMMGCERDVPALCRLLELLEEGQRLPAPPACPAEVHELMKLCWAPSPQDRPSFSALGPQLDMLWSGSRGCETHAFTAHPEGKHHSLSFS

Homo sapiens [10] = species: Homo sapiens; assay: Selectivity ratio of IC50 for TGFbetaR1 (unknown origin) to IC50 for MEK5 (unknown origin)
Homo sapiens [11] = species: Homo sapiens; assay: Selectivity ratio of IC50 for ERK5 (unknown origin) to IC50 for MEK5 (unknown origin)
[12] = target: T4, Dual specificity mitogen-activated protein kinase kinase 6 (Homo sapiens, UniProt P52564); assay: Inhibition of MEK6 (unknown origin)
T4 sequence (P52564 whole entry): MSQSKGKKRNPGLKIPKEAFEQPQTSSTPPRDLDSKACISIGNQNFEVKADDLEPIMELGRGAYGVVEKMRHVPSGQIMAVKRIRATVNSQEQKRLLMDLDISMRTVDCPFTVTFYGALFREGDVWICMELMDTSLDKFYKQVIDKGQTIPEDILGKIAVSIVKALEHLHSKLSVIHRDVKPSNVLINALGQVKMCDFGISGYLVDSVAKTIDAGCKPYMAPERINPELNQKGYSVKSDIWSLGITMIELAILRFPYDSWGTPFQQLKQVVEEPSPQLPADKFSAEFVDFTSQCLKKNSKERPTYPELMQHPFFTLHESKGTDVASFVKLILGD

Homo sapiens [13] = species: Homo sapiens; assay: Selectivity ratio of IC50 for MEK2 (unknown origin) to IC50 for MEK6 (unknown origin)
Homo sapiens [14] = species: Homo sapiens; assay: Selectivity ratio of IC50 for MEK3 (unknown origin) to IC50 for MEK6 (unknown origin)
Homo sapiens [15] = species: Homo sapiens; assay: Selectivity ratio of IC50 for MEK4 (unknown origin) to IC50 for MEK6 (unknown origin)
Homo sapiens [16] = species: Homo sapiens; assay: Selectivity ratio of IC50 for MEK1 (unknown origin) to IC50 for MEK6 (unknown origin)

Question: Which IC50 [1] does the source give for `COc1ccc2c(Cc3ccc(O[Si](C)(C)C(C)(C)C)cc3)c3[n+](cc2c1OC)CCc1ccccc1-3` here?
Answer: The IC50 was 6 µM.

Question: What about the IC50 [2] of the same compound?
Answer: Its IC50 is 10 µM.

Question: For `O=C(O)c1cccc(NC2=CC(=O)c3ccccc3C2=O)c1`, which IC50 [3] is on record?
Answer: The IC50 was 1.9 µM.

Question: What about the Ratio IC50 (Homo sapiens [4]) of the same compound?
Answer: The Ratio IC50 was 12.

Question: And the Ratio IC50 (Homo sapiens [5])?
Answer: Its Ratio IC50 is 17.

Question: Which results are given for `C=CC(=O)Nc1cccc(-c2n[nH]c3cc(C)ccc23)c1`?
Answer: inhibition [6]: > 75%; inhibition [7]: > 75%; inhibition [8]: > 75%

Question: Which results are given for `C=CC(=O)Nc1cccc(-c2n[nH]c3ccccc23)c1`?
Answer: inhibition [6]: > 75%; inhibition [7]: > 75%; inhibition [9]: > 75%; inhibition [8]: > 75%

Question: Which results are given for `CN(C)Cc1cccc(N/C(=C2\C(=O)Nc3cc(C(N)=O)ccc32)c2ccccc2)c1`?
Answer: Ratio IC50 (Homo sapiens [10]): 580; Ratio IC50 (Homo sapiens [11]): 60

Question: Which IC50 [12] does the source give for `C=C(CC)C(=O)c1ccc(OCC(=O)O)c(Cl)c1Cl` [ETHACRYNIC ACID] here?
Answer: Its IC50 is 4.5 µM.

Question: And the Ratio IC50 (Homo sapiens [13])?
Answer: The Ratio IC50 was 9.

Question: What about the Ratio IC50 (Homo sapiens [14]) of the same compound?
Answer: Its Ratio IC50 is 3.

Question: What about the Ratio IC50 (Homo sapiens [15]) of the same compound?
Answer: Its Ratio IC50 is 3.

Question: And the Ratio IC50 (Homo sapiens [16])?
Answer: The Ratio IC50 was 12.

Question: For `O=C(O)CCSC1=CC(=O)c2ccccc2C1=O`, which IC50 [3] is on record?
Answer: The IC50 was 0.23 µM.

— ChEMBL document CHEMBL4725240, “Non-'classical' MEKs: A review of MEK3-7 inhibitors” (Bioorg Med Chem Lett, 2020)
